We go through 59 compounds from patent US7772271B2 (priority 2004, dated 2010).

A word on the melting point: it is the temperature, or range, at which the solid turns liquid.

Compound `CC(C)n1c(-c2ccc(NC(=O)O[C@H](C)c3ccc(F)cc3)cc2)c(C#N)c2ccc(N3CCOCC3)cc21` [Compound 2953] registered a melting point of 231 to 234 °C.

For `CC(C)OC(=O)Nc1ccc(-c2c(C#N)c3ccc(N4CCCC4)cc3n2C2CCC2)cc1` [Compound 2954], the melting point lay within 241 to 244 °C.

Consider `CCCS(=O)(=O)Nc1ccc(-c2c(C#N)c3ccc(N4CCCC4)cc3n2C2CCC2)cc1` [Compound 2955], for which the melting point was in the range of 229 to 234 °C.

With `CCCS(=O)(=O)Nc1ccc(-c2c(C#N)c3ccc(Oc4ncccc4F)cc3n2C2CC2)cc1` [Compound 2956], the melting point lay in the range of 198 to 200 °C. Then `CS(=O)(=O)CCCOc1ccc2c(C#N)c(-c3ccc(NS(=O)(=O)C4CC4)cc3)n(C3CCC3)c2c1` [Compound 2957], with 203 to 204 °C. Turning to `C[C@@H](OC(=O)Nc1ccc(-c2c(C#N)c3ccc(OCCCS(C)(=O)=O)cc3n2C2CCC2)cc1)C(F)(F)F` [Compound 2958], the melting point was in the range of 206 to 208 °C. With `C[C@@H](OC(=O)Nc1ccc(-c2c(C#N)c3ccc(-c4ccccn4)cc3n2C2CCC2)cc1)C(F)(F)F` [Compound 2959], the melting point was 220 to 222 °C. With `N#Cc1c(-c2ccc(NS(=O)(=O)C3CC3)cc2)n(C2CCC2)c2cc(N3CCCC3)ccc12` [Compound 2960], the melting point was in the range of 258 to 260 °C. Compound `C[C@@H](OC(=O)Nc1ccc(-c2c(C#N)c3ccc(N4CCCC4)cc3n2C2CCC2)cc1)C(F)(F)F` [Compound 2961] showed a melting point of 246 to 249 °C. Then `CCS(=O)(=O)Nc1ccc(-c2c(C#N)c3ccc(N4CCCC4)cc3n2C2CCC2)cc1` [Compound 2962], with 244 to 250 °C. The compound `CCCS(=O)(=O)Nc1ccc(-c2c(C#N)c3ccc(N4CCCCC4)cc3n2CC2CC2)cc1` [Compound 2963] came in with a melting point of 189 to 194 °C. With `CC1(S(=O)(=O)Nc2ccc(-c3c(C#N)c4ccc(C(=O)N5CCOCC5)cc4n3C3CCC3)cc2)CC1` [Compound 2964], the melting point lay within 248 to 250 °C. Regarding `CCC1(S(=O)(=O)Nc2ccc(-c3c(C#N)c4ccc(C(=O)N5CCOCC5)cc4n3C3CCC3)cc2)CC1` [Compound 2965], the melting point was 212 to 214 °C. Then `CC(C)OC(=O)Nc1ccc(-c2c(C#N)c3ccc(N4CCCCC4)cc3n2C2CCC2)cc1` [Compound 2967], with 208 to 213 °C; and `CC(C)S(=O)(=O)Nc1ccc(-c2c(C#N)c3ccc(N4CCCCC4)cc3n2C2CCC2)cc1` [Compound 2968], with 233 to 235 °C; and `CCCS(=O)(=O)Nc1ccc(-c2c(C#N)c3ccc(Oc4nccc(C)n4)cc3n2CC2CC2)cc1` [Compound 2969], with 181 to 183 °C. Then `N#Cc1c(-c2ccc(NCc3ccccc3C(F)(F)F)cc2)n(C2CCC2)c2cc(OCCF)ccc12` [Compound 2970], with 183 to 185 °C. Compound `CCCS(=O)(=O)Nc1ccc(-c2c(C#N)c3ccc(-c4ncccc4Cl)cc3n2C2CCC2)cc1` [Compound 2972] returned a melting point of 235 to 237 °C. `CCS(=O)(=O)Nc1ccc(-c2c(C#N)c3ccc(N4CCCCC4)cc3n2C2CCC2)cc1` [Compound 2974] yielded a melting point of 203 to 205 °C. In the case of `CC(C)S(=O)(=O)Nc1ccc(-c2c(C#N)c3ccc(N4CCCC4)cc3n2C2CCC2)cc1` [Compound 2975], the melting point lay within 256 to 261 °C.

`Cc1cccc(-c2ccc3c(C#N)c(-c4ccc(NC(=O)O[C@H](C)C5CC5)cc4)n(C4CCC4)c3c2)c1` [Compound 2977] had a melting point of 112 to 117 °C.

`CCCS(=O)(=O)Nc1ccc(-c2c(C#N)c3ccc(-c4cc(C)ccn4)cc3n2C2CCC2)cc1` [Compound 2978] gave a melting point of 210 to 212 °C. Then `CCCS(=O)(=O)Nc1ccc(-c2c(C#N)c3ccc(Oc4nccc(C)n4)cc3n2CC2CC2)c(C)c1` [Compound 2980], with 167 to 170 °C; and `CCCS(=O)(=O)Nc1ccc(-c2c(C#N)c3ccc(Oc4nccc(C(F)(F)F)n4)cc3n2CC2CC2)c(C)c1` [Compound 2981], with 174 to 177 °C; and `CC(C)CS(=O)(=O)Nc1ccc(-c2c(C#N)c3ccc(N4CCCCC4)cc3n2C2CCC2)cc1` [Compound 2982], with 198 to 202 °C. `N#Cc1c(-c2ccc(NS(=O)(=O)C3CC3)cc2)n(C2CCC2)c2cc(N3CCCCC3)ccc12` [Compound 2983]: the melting point is 232 to 238 °C. `CS(=O)(=O)Nc1ccc(-c2c(C#N)c3ccc(N4CCCCC4)cc3n2C2CCC2)cc1` [Compound 2984] had a melting point of 229 to 233 °C. In the case of `C[C@@H](OC(=O)Nc1ccc(-c2c(C#N)c3ccc(N4CCCC4)cc3n2C2CCC2)cc1)C1CC1` [Compound 2985], the melting point lay within 205 to 210 °C. In the case of `C[C@@H](OC(=O)Nc1ccc(-c2c(C#N)c3ccc(N4CCCC4)cc3n2C2CC2)cc1)C1CC1` [Compound 2986], the melting point lay in the range of 197 to 202 °C.

Take `CCCS(=O)(=O)Nc1ccc(-c2c(C#N)c3ccc(OCS(C)(=O)=O)cc3n2C2CCC2)cc1` [Compound 2987]: the melting point was 266 to 273 °C. Then `CC(C)CS(=O)(=O)Nc1ccc(-c2c(C#N)c3ccc(OCS(C)(=O)=O)cc3n2C2CCC2)cc1` [Compound 2991], with 221 to 225 °C. On to `CS(=O)(=O)COc1ccc2c(C#N)c(-c3ccc(NS(=O)(=O)C4CCC4)cc3)n(C3CCC3)c2c1` [Compound 2993], for which the melting point was in the range of 231 to 237 °C.

Take `C[C@@H](OC(=O)Nc1ccc(-c2c(C#N)c3ccc(-c4ccccn4)cc3n2C2CCC2)cc1Cl)C(F)(F)F` [Compound 2994]: the melting point was in the range of 84 to 94 °C. Then `C[C@@H](OC(=O)Nc1ccc(-c2c(C#N)c3cc(Oc4cnccn4)ccc3n2C2CCC2)cc1)C1CC1` [Compound 2995], with 206 to 208 °C; and `C[C@@H](OC(=O)Nc1ccc(-c2c(C#N)c3cc(Oc4ncccn4)ccc3n2C2CCC2)cc1)C1CC1` [Compound 2996], with 200 to 202 °C; and `C[C@@H](OC(=O)Nc1ccc(-c2c(C#N)c3ccc(-c4ncccc4C(F)(F)F)cc3n2C2CCC2)cc1)C1CC1` [Compound 2997], with 90 to 98 °C.

On to `Cc1cccnc1-c1ccc2c(C#N)c(-c3ccc(NC(=O)O[C@H](C)C4CC4)cc3)n(C3CCC3)c2c1` [Compound 2999], for which the melting point was 226 to 228 °C. `C[C@@H](OC(=O)Nc1ccc(-c2c(C#N)c3ccc(-c4cccc(Cl)n4)cc3n2C2CCC2)cc1)C1CC1` [Compound 3000] displayed a melting point of 208 to 210 °C. With `C[C@@H](OC(=O)Nc1ccc(-c2c(C#N)c3ccc(-c4ccc(Cl)cn4)cc3n2C2CCC2)cc1)C1CC1` [Compound 3001], the melting point lay in the range of 111 to 122 °C. For `Cc1ccc(-c2ccc3c(C#N)c(-c4ccc(NC(=O)O[C@H](C)C5CC5)cc4)n(C4CCC4)c3c2)nc1` [Compound 3002], the melting point is 88 to 102 °C. `CCCS(=O)(=O)Nc1ccc(-c2c(C#N)c3ccc(Oc4ncccc4Br)cc3n2C2CC2)cc1` [Compound 3003] registered a melting point of 223 to 225 °C. `CC(C)Nc1ccc(-c2c(C#N)c3ccc(Oc4ncccc4F)cc3n2C2CCC2)cc1` [Compound 3004] returned a melting point of 188 to 190 °C. Then `Cc1ccnc(Oc2ccc3c(C#N)c(-c4ccc(NC(C)C)cc4)n(C4CCC4)c3c2)n1` [Compound 3006], with 173 to 175 °C; and `C[C@@H](OC(=O)Nc1ccc(-c2c(C#N)c3ccc(Oc4ncccc4F)cc3n2C2CC2)cc1)C1CC1` [Compound 3007], with 154 to 156 °C; and `CC(C)OC(=O)Nc1ccc(-c2c(C#N)c3ccc(N4CCOCC4)cc3n2C2CCC2)cc1Cl` [Compound 3011], with 196 to 199 °C. In turn, `CCCS(=O)(=O)Nc1ccc(-c2c(C#N)c3ccc(N4CCOCC4)cc3n2C2CCC2)cc1` [Compound 3013] gave a melting point of 176 to 179 °C.

Regarding `CC(C)CS(=O)(=O)Nc1ccc(-c2c(C#N)c3ccc(-n4ccccc4=O)cc3n2C2CCC2)cc1` [Compound 3015], the melting point was 270 °C (dec.). Compound `C[C@H](NS(=O)(=O)Nc1ccc(-c2c(C#N)c3ccc(Oc4ncccc4Cl)cc3n2C2CCC2)cc1)C1CC1` [Compound 3017] displayed a melting point of 120 to 125 °C.

Compound `C[C@H](NS(=O)(=O)Nc1ccc(-c2c(C#N)c3ccc(Oc4ncccc4F)cc3n2C2CCC2)cc1)C1CC1` [Compound 3018] gave a melting point of 155 to 157 °C. Then `Cc1ccnc(Oc2ccc3c(C#N)c(-c4ccc(NS(=O)(=O)N[C@@H](C)C5CC5)cc4)n(C4CCC4)c3c2)n1` [Compound 3019], with 227 to 229 °C; and `C[C@H](NS(=O)(=O)Nc1ccc(-c2c(C#N)c3ccc(Oc4ncccc4Br)cc3n2C2CCC2)cc1)C1CC1` [Compound 3020], with 118 to 124 °C; and `CC(OC(=O)Nc1ccc(-c2c(C#N)c3ccc(OCc4cnccn4)cc3n2C2CCC2)cc1)C(F)(F)F` (centres unmarked) [Compound 3021], with 195 to 196 °C. Compound `CC(C)(C)OC(=O)Nc1ccc(-c2c(C#N)c3ccc(OCS(C)(=O)=O)cc3n2CC2CC2)cc1` [Compound 3025] displayed a melting point of 214 to 220 °C.

For the compound `CCCS(=O)(=O)Nc1ccc(-c2c(C#N)c3ccc(Oc4ncccc4Br)cc3n2CC2CC2)c(C)c1` [Compound 3029], the melting point fell in the range of 110 to 113 °C. Then `CCCS(=O)(=O)Nc1ccc(-c2c(C#N)c3ccc(Oc4ncccc4F)cc3n2CC2CC2)c(C)c1` [Compound 3030], with 128 to 131 °C; and `C[C@@H](OC(=O)Nc1ccc(-c2c(C#N)c3ccc(Oc4ncccn4)cc3n2C2CCC2)cc1OC(F)(F)F)C1CC1` [Compound 3034], with 80 to 81 °C. For the compound `CC(C)OC(=O)Nc1ccc(-c2c(C#N)c3ccc(Oc4ncccn4)cc3n2C2CCC2)cc1OC(F)(F)F` [Compound 3035], the melting point fell in the range of 94 to 96 °C.

`CC(C)OC(=O)Nc1c(F)cc(-c2c(C#N)c3ccc(Oc4ncccn4)cc3n2C2CCC2)cc1F` [Compound 3036] displayed a melting point of 144 to 154 °C. Then `CC(C)NC(=O)Nc1c(F)cc(-c2c(C#N)c3ccc(Oc4ncccn4)cc3n2C2CCC2)cc1F` [Compound 3038], with 236 to 243 °C.
